Assay results as given in the CheMixHub viscosity set.
± gives the uncertainty stated by the source.

Experiment: xn = mol fraction of the nth substance listed

Compound: CCCOCCO + O=S1(=O)CCCC1
- viscosity (303.15 K, 101 kPa, x2 = 0.0493): 1.842 ± 0.014 mPa·s
- viscosity (303.15 K, 101 kPa, x2 = 0.1029): 1.682 ± 0.014 mPa·s
- viscosity (303.15 K, 101 kPa, x2 = 0.1508): 1.659 ± 0.014 mPa·s
- viscosity (303.15 K, 101 kPa, x2 = 0.1991): 1.748 ± 0.015 mPa·s
- viscosity (303.15 K, 101 kPa, x2 = 0.2989): 2.284 ± 0.02 mPa·s
- viscosity (303.15 K, 101 kPa, x2 = 0.3489): 2.685 ± 0.024 mPa·s
- viscosity (303.15 K, 101 kPa, x2 = 0.3998): 3.16 ± 0.028 mPa·s
- viscosity (303.15 K, 101 kPa, x2 = 0.4993): 4.193 ± 0.039 mPa·s
- viscosity (303.15 K, 101 kPa, x2 = 0.5988): 5.262 ± 0.051 mPa·s
- viscosity (303.15 K, 101 kPa, x2 = 0.7002): 6.392 ± 0.064 mPa·s
- viscosity (303.15 K, 101 kPa, x2 = 0.8): 7.572 ± 0.078 mPa·s
- viscosity (303.15 K, 101 kPa, x2 = 0.9012): 8.861 ± 0.094 mPa·s
- viscosity (303.15 K, 101 kPa, x2 = 0.9504): 9.498 ± 0.1 mPa·s

Compound: C=CCNCC=C.CC(=O)O + O
- viscosity (298.15 K, 101 kPa, x2 = 0.284): 80 ± 20 mPa·s
- viscosity (308.15 K, 101 kPa, x2 = 0.284): 45.7 ± 10 mPa·s
- viscosity (318.15 K, 101 kPa, x2 = 0.284): 27.6 ± 6.6 mPa·s

Compound: CC(=O)CCc1ccccc1 + CCCCCOC(C)=O
- viscosity (298.15 K, 101 kPa, x1 = 0.0322): 0.8102 ± 0.0099 mPa·s
- viscosity (298.15 K, 101 kPa, x1 = 0.0702): 0.8323 ± 0.01 mPa·s

Compound: CCC(=O)OC + CCCCCCC
- viscosity (308.15 K, 101.3 kPa, x1 = 0.0447): 0.354 ± 0.004 mPa·s
- viscosity (308.15 K, 101.3 kPa, x1 = 0.1083): 0.355 ± 0.004 mPa·s
- viscosity (308.15 K, 101.3 kPa, x1 = 0.1932): 0.358 ± 0.004 mPa·s
- viscosity (308.15 K, 101.3 kPa, x1 = 0.3018): 0.362 ± 0.004 mPa·s
- viscosity (308.15 K, 101.3 kPa, x1 = 0.4146): 0.369 ± 0.004 mPa·s
- viscosity (308.15 K, 101.3 kPa, x1 = 0.5227): 0.377 ± 0.004 mPa·s
- viscosity (308.15 K, 101.3 kPa, x1 = 0.5693): 0.381 ± 0.004 mPa·s
- viscosity (308.15 K, 101.3 kPa, x1 = 0.7002): 0.395 ± 0.004 mPa·s
- viscosity (308.15 K, 101.3 kPa, x1 = 0.7986): 0.407 ± 0.004 mPa·s
- viscosity (308.15 K, 101.3 kPa, x1 = 0.9016): 0.421 ± 0.004 mPa·s
- viscosity (308.15 K, 101.3 kPa, x1 = 0.9509): 0.429 ± 0.004 mPa·s
- viscosity (318.15 K, 101.3 kPa, x1 = 0.0447): 0.322 ± 0.003 mPa·s
- viscosity (318.15 K, 101.3 kPa, x1 = 0.1083): 0.326 ± 0.003 mPa·s
- viscosity (318.15 K, 101.3 kPa, x1 = 0.1932): 0.332 ± 0.003 mPa·s
- viscosity (318.15 K, 101.3 kPa, x1 = 0.3018): 0.34 ± 0.003 mPa·s
- viscosity (318.15 K, 101.3 kPa, x1 = 0.4146): 0.349 ± 0.004 mPa·s
- viscosity (318.15 K, 101.3 kPa, x1 = 0.5227): 0.359 ± 0.004 mPa·s
- viscosity (318.15 K, 101.3 kPa, x1 = 0.5693): 0.363 ± 0.004 mPa·s
- viscosity (318.15 K, 101.3 kPa, x1 = 0.7002): 0.377 ± 0.004 mPa·s
- viscosity (318.15 K, 101.3 kPa, x1 = 0.7986): 0.389 ± 0.004 mPa·s
- viscosity (318.15 K, 101.3 kPa, x1 = 0.9016): 0.402 ± 0.004 mPa·s
- viscosity (318.15 K, 101.3 kPa, x1 = 0.9509): 0.409 ± 0.004 mPa·s

Compound: NCCOCCOCCN.O=S(=O)([N-]S(=O)(=O)C(F)(F)F)C(F)(F)F.[Li+] + O
- viscosity (323.15 K, 101 kPa, x1 = 0.0299): 1.86 ± 0.13 mPa·s
- viscosity (323.15 K, 101 kPa, x1 = 0.0598): 4.12 ± 0.23 mPa·s
- viscosity (323.15 K, 101 kPa, x1 = 0.1028): 8.92 ± 0.36 mPa·s
- viscosity (323.15 K, 101 kPa, x1 = 0.1994): 22.16 ± 0.68 mPa·s
- viscosity (323.15 K, 101 kPa, x1 = 0.2969): 37.12 ± 1.1 mPa·s
- viscosity (323.15 K, 101 kPa, x1 = 0.3942): 52.68 ± 1.5 mPa·s
- viscosity (323.15 K, 101 kPa, x1 = 0.4958): 66.7 ± 2.3 mPa·s
- viscosity (323.15 K, 101 kPa, x1 = 0.6022): 79.33 ± 3.4 mPa·s
- viscosity (323.15 K, 101 kPa, x1 = 0.6956): 89.08 ± 4.3 mPa·s
- viscosity (323.15 K, 101 kPa, x1 = 0.8777): 103.8 ± 5.9 mPa·s

Compound: O=[N+]([O-])[O-].O=[N+]([O-])[O-].[Ca+2] + O
- viscosity (298.15 K, 100 kPa, x1 = 0.00575): 0.963 ± 0.03 mPa·s
- viscosity (298.15 K, 100 kPa, x1 = 0.006): 0.964 ± 0.038 mPa·s
- viscosity (298.15 K, 100 kPa, x1 = 0.01): 1.052 ± 0.042 mPa·s
- viscosity (298.15 K, 100 kPa, x1 = 0.01205): 1.051 ± 0.033 mPa·s
- viscosity (298.15 K, 100 kPa, x1 = 0.0267): 1.384 ± 0.043 mPa·s
- viscosity (298.15 K, 100 kPa, x1 = 0.03): 1.328 ± 0.052 mPa·s
- viscosity (298.15 K, 100 kPa, x1 = 0.04): 1.955 ± 0.077 mPa·s
- viscosity (298.15 K, 100 kPa, x1 = 0.04494): 1.954 ± 0.061 mPa·s
- viscosity (298.15 K, 100 kPa, x1 = 0.06819): 3.256 ± 0.1 mPa·s
- viscosity (298.15 K, 100 kPa, x1 = 0.07): 3.257 ± 0.13 mPa·s
- viscosity (323.15 K, 100 kPa, x1 = 0.00575): 0.599 ± 0.019 mPa·s
- viscosity (323.15 K, 100 kPa, x1 = 0.006): 0.599 ± 0.024 mPa·s
- viscosity (323.15 K, 100 kPa, x1 = 0.01): 0.66 ± 0.026 mPa·s
- viscosity (323.15 K, 100 kPa, x1 = 0.01205): 0.66 ± 0.021 mPa·s
- viscosity (323.15 K, 100 kPa, x1 = 0.0267): 0.852 ± 0.027 mPa·s
- viscosity (323.15 K, 100 kPa, x1 = 0.03): 0.844 ± 0.033 mPa·s
- viscosity (323.15 K, 100 kPa, x1 = 0.04): 1.207 ± 0.048 mPa·s
- viscosity (323.15 K, 100 kPa, x1 = 0.04494): 1.204 ± 0.038 mPa·s
- viscosity (323.15 K, 100 kPa, x1 = 0.06819): 1.928 ± 0.06 mPa·s
- viscosity (323.15 K, 100 kPa, x1 = 0.07): 1.931 ± 0.076 mPa·s

Compound: CCC(=O)OC + C1CCCCC1
- viscosity (298.15 K, 101 kPa, x1 = 0.0565): 0.827 ± 0.083 mPa·s
- viscosity (298.15 K, 101 kPa, x1 = 0.1524): 0.742 ± 0.075 mPa·s
- viscosity (298.15 K, 101 kPa, x1 = 0.2574): 0.67 ± 0.067 mPa·s
- viscosity (298.15 K, 101 kPa, x1 = 0.3378): 0.626 ± 0.063 mPa·s
- viscosity (298.15 K, 101 kPa, x1 = 0.4555): 0.578 ± 0.058 mPa·s
- viscosity (298.15 K, 101 kPa, x1 = 0.4981): 0.565 ± 0.057 mPa·s
- viscosity (298.15 K, 101 kPa, x1 = 0.5542): 0.55 ± 0.055 mPa·s
- viscosity (298.15 K, 101 kPa, x1 = 0.6536): 0.532 ± 0.053 mPa·s
- viscosity (298.15 K, 101 kPa, x1 = 0.7514): 0.522 ± 0.052 mPa·s
- viscosity (298.15 K, 101 kPa, x1 = 0.8265): 0.519 ± 0.052 mPa·s
- viscosity (298.15 K, 101 kPa, x1 = 0.9564): 0.526 ± 0.053 mPa·s
- viscosity (308.15 K, 101 kPa, x1 = 0.0565): 0.699 ± 0.07 mPa·s
- viscosity (308.15 K, 101 kPa, x1 = 0.1524): 0.621 ± 0.062 mPa·s
- viscosity (308.15 K, 101 kPa, x1 = 0.2574): 0.556 ± 0.056 mPa·s
- viscosity (308.15 K, 101 kPa, x1 = 0.3378): 0.517 ± 0.052 mPa·s
- viscosity (308.15 K, 101 kPa, x1 = 0.4555): 0.475 ± 0.048 mPa·s
- viscosity (308.15 K, 101 kPa, x1 = 0.4981): 0.463 ± 0.046 mPa·s
- viscosity (308.15 K, 101 kPa, x1 = 0.5542): 0.45 ± 0.045 mPa·s
- viscosity (308.15 K, 101 kPa, x1 = 0.6536): 0.434 ± 0.044 mPa·s
- viscosity (308.15 K, 101 kPa, x1 = 0.7514): 0.426 ± 0.043 mPa·s
- viscosity (308.15 K, 101 kPa, x1 = 0.8265): 0.424 ± 0.043 mPa·s
- viscosity (308.15 K, 101 kPa, x1 = 0.9564): 0.432 ± 0.043 mPa·s

Compound: NNc1ccccc1 + Oc1ccccc1
- viscosity (323.1 K, 101 kPa, x1 = 0.181): 5.25 ± 0.11 mPa·s
- viscosity (323.1 K, 101 kPa, x1 = 0.369): 7.49 ± 0.15 mPa·s
- viscosity (323.1 K, 101 kPa, x1 = 0.466): 8.02 ± 0.16 mPa·s
- viscosity (323.1 K, 101 kPa, x1 = 0.502): 8.2 ± 0.16 mPa·s
- viscosity (323.1 K, 101 kPa, x1 = 0.595): 8.05 ± 0.16 mPa·s
- viscosity (323.1 K, 101 kPa, x1 = 0.781): 6.56 ± 0.13 mPa·s

Compound: CCCCn1cc[n+](C)c1.[Cl-] + O
- viscosity (293.15 K, 101 kPa, x2 = 0.4982): 235.1 mPa·s
- viscosity (293.15 K, 101 kPa, x2 = 0.6132): 85.9 ± 15 mPa·s
- viscosity (303.15 K, 101 kPa, x2 = 0.5535): 83.3 ± 14 mPa·s
- viscosity (308.15 K, 101 kPa, x2 = 0.4982): 92.5 ± 19 mPa·s
